Measured values as given in the supplement of paper PMC11579375.

Tests used:
Test in all cases: area under the viability dose-response curve (AUC) (AUC (arbitrary units, max 500 = no viability loss)); higher = less sensitive (higher viability)
Conditions in all cases: exposure time: 120 h; concentration range: 0.1 nM - 10 µM, 6 doses
17E = tested on: 17E (embryonal-type hepatoblastoma organoid)
Procedure: (§1)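 Patient-derived hepatoblastoma tumor organoids (about 50 organoids per well, 384-well plates, medium with 5% BME) were treated with the PMC pediatric cancer drug library. Each drug was tested in duplicate at 6 concentrations (0.1 nM to 10 µM, 10-fold steps).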

3E = tested on: 3E (embryonal-type hepatoblastoma organoid)
Procedure: as §1

135F2 = tested on: 135F2 (fetal-II hepatoblastoma organoid with high liver markers)
Procedure: as §1

8F1 = tested on: 8F1 (fetal-I hepatoblastoma organoid with intermediate liver markers)
Procedure: as §1

22E = tested on: 22E (embryonal-type hepatoblastoma organoid)
Procedure: as §1

13F2 = tested on: 13F2 (fetal-II hepatoblastoma organoid with high liver markers)
Procedure: as §1

27F1 = tested on: 27F1 (fetal-I hepatoblastoma organoid with intermediate liver markers)
Procedure: as §1

17F1 = tested on: 17F1 (fetal-I hepatoblastoma organoid with intermediate liver markers)
Procedure: as §1

13E = tested on: 13E (embryonal-type hepatoblastoma organoid)
Procedure: as §1

10F2 = tested on: 10F2 (fetal-II hepatoblastoma organoid with high liver markers)
Procedure: as §1

96F1 = tested on: 96F1 (fetal-I hepatoblastoma organoid with intermediate liver markers)
Procedure: as §1

SMILES | area under the viability dose-response curve (17E) | area under the viability dose-response curve (3E) | area under the viability dose-response curve (135F2) | area under the viability dose-response curve (8F1) | area under the viability dose-response curve (22E) | area under the viability dose-response curve (13F2) | area under the viability dose-response curve (27F1) | area under the viability dose-response curve (17F1) | area under the viability dose-response curve (13E) | area under the viability dose-response curve (10F2) | area under the viability dose-response curve (96F1)
C[C@H](NC(=O)c1c(N)nn2cccnc12)c1cc2cccc(C#Cc3cnn(C)c3)c2c(=O)n1-c1ccccc1 [IPI549] | 464 | 428 | > 500 | > 500 | 477 | 479 | > 500 | > 500 | 463 | 459 | 459
C=CC(=O)N1CCC[C@@H](n2nc(-c3ccc(Oc4ccccc4)cc3)c3c(N)ncnc32)C1 [Ibrutinib] | 439 | > 500 | 455 | 480 | 443 | 358 | 418 | 488 | 476 | 386 | 438
C#Cc1cccc(Nc2ncnc3cc4c(cc23)OCCOCCOCCO4)c1 [Icotinib] | 487 | 474 | 474 | 495 | > 500 | 406 | 442 | 465 | 497 | 376 | 464
COc1cc(C(=O)O)ccc1NC(=O)[C@@H]1N[C@@H](CC(C)(C)C)[C@](C#N)(c2ccc(Cl)cc2F)[C@H]1c1cccc(Cl)c1F [Idasanutlin] | 378 | 349 | 397 | 371 | 450 | 282 | 402 | 457 | 413 | 291 | 471
CC[C@H](Nc1ncnc2[nH]cnc12)c1nc2cccc(F)c2c(=O)n1-c1ccccc1 [Idelalisib] | 488 | 491 | > 500 | 484 | 492 | 496 | 492 | 495 | 497 | 492 | > 500
Cc1ccc(NC(=O)c2ccc(CN3CCN(C)CC3)cc2)cc1Nc1nccc(-c2cccnc2)n1 [Imatinib] | 496 | 487 | 478 | 483 | 500 | 498 | 481 | 478 | 499 | 488 | 498
CC(C)NC[C@@H](C(=O)N1CCN(c2ncnc3c2[C@H](C)C[C@H]3O)CC1)c1ccc(Cl)cc1 [Ipatasertib] | 437 | 436 | 496 | 434 | 433 | 442 | 483 | 495 | 456 | 433 | 445
CC1=C(/C=C/C(C)=C/C=C/C(C)=C\C(=O)O)C(C)(C)CCC1 [Isotretinoin] | 495 | 440 | 496 | > 500 | 472 | > 500 | > 500 | > 500 | 468 | > 500 | > 500
CC(C)C[C@H](NC(=O)CNC(=O)c1cc(Cl)ccc1Cl)B(O)O [Ixazomib] | 247 | 256 | 261 | 287 | 321 | 264 | 282 | 278 | 282 | 246 | 294
Cc1cc(-c2ncc(CC(=O)Nc3ccc(-c4cnccn4)cn3)cc2C)ccn1 [LGK974] | 475 | > 500 | 499 | 489 | 494 | 477 | 492 | 497 | 497 | 474 | 491
Cc1cc(C)cc(C(=O)NOCCCCCC(=O)NO)c1 [LMK-235] | 365 | 407 | 378 | 428 | 413 | 379 | 411 | 418 | 404 | 395 | 426
O=c1nc(N2CCOCC2)oc2c(-c3cccc4c3sc3ccccc34)cccc12 [LTURM34] | 487 | 486 | 467 | 489 | 433 | 484 | > 500 | 490 | 473 | 393 | 497
CS(=O)(=O)CCNCc1ccc(-c2ccc3ncnc(Nc4ccc(OCc5cccc(F)c5)c(Cl)c4)c3c2)o1 [Lapatinib] | 482 | 464 | 474 | 495 | 463 | 388 | 416 | 459 | 483 | 336 | 445
O=C(Nc1cnn2ccc(N3CCC[C@@H]3c3cc(F)ccc3F)nc12)N1CC[C@H](O)C1 [Larotrectinib] | 453 | 450 | 495 | 473 | > 500 | > 500 | > 500 | 467 | 487 | > 500 | 481
COc1cc2nccc(Oc3ccc(NC(=O)NC4CC4)c(Cl)c3)c2cc1C(N)=O [Lenvatinib] | 434 | 475 | 469 | 461 | 472 | 445 | 445 | > 500 | 468 | 419 | 474
C[C@]1(O)C[C@@H](c2nc(-c3ccc4ccc(-c5ccccc5)nc4c3)c3c(N)nccn32)C1 [Linsitinib] | 384 | 374 | 487 | 484 | 391 | 410 | 476 | 492 | 405 | 467 | 454
